Data published in patent US10899759B2, “Positive allosteric modulators of the muscarinic acetylcholine receptor M1” (Vanderbilt University, priority 2016, dated 2021).

Target: T1, human mAChR M1 (Homo sapiens, UniProt P11229)
T1 construct: host or cells: CHO-K1
T1 sequence (P11229 1-460): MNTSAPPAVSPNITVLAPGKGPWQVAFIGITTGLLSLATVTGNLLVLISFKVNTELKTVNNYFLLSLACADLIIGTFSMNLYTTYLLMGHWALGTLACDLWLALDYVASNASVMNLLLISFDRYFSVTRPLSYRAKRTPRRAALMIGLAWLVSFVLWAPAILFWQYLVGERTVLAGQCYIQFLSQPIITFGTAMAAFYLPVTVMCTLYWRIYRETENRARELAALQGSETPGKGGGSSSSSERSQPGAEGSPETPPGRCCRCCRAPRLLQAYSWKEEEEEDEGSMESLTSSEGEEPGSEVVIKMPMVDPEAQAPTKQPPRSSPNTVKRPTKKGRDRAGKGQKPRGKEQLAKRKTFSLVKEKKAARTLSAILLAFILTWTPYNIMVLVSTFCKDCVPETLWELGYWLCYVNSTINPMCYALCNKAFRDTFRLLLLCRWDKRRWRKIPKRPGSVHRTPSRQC
Assay: mAChR M1 cell-based functional assay (calcium mobilization, Fluo-4, FDSS)
Settings: CHO-K1 cells stably expressing hM1; for Emax: EC20 acetylcholine response, read-out: Human M1 Emax; for EC50: positive allosteric modulator activity as increase in the EC20 acetylcholine response
How it was run: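 CHO-K1 cells stably expressing muscarinic receptor, loaded with Fluo-4; 11-point 1:3 compound series added and calcium flux read over 300 s at 1 Hz. Agonism from direct calcium rise, PAM activity as potentiation of EC20 acetylcholine, antagonism as decrease of EC80 acetylcholine; four-parameter logistic fits.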

Structure (SMILES)	Emax [%]	EC50 [µM]
Cn1ccc(-c2ccc(Cc3cc(C(=O)N[C@@H]4CC[C@H]4O)nc4c3ccn4C)cc2)n1 [Compound 41, N-[(1R,2R)-2-hydroxycyclobutyl]-1-methy1-4-[[4-(1-methylpyrazol-3-yl)phenyl]methyl]pyrrolo[2,3-b]pyridine-6-carboxamide]	78	1.05
Cn1ccc2c(Cc3ccc(-c4cscn4)cc3)cc(C(=O)N[C@H]3CCOC3)nc21 [Compound 33, 1-methyl-N-[(3S)-tetrahydrofuran-3-yl]-4-[(4-thiazol-4-ylphenyl)methyl]pyrrolo[2,3-b]pyridine-6-carboxamide]	50.6	2.91
Cn1ccc2c(Cc3ccc(-c4cscn4)cc3)cc(C(=O)N[C@H]3CCOC[C@@H]3O)nc21 [Compound 21, N-[(3R,4S)-3-hydroxytetrahydropyran-4-yl]-1-methyl-4-[(4-thiazol-4-ylphenyl)methyl]pyrrolo[2,3-b]pyridine-6-carboxamide]	59.3	0.02
Cn1ccc2c(Cc3ccc(-c4nccs4)cc3)cc(C(=O)N[C@H]3CCCC[C@@H]3O)nc21 [Compound 60, N-[(1S,2S)-2-hydroxycyclohexyl]-1-methyl-4-[(4-thiazol-2-ylphenyl)methyl]pyrrolo[2,3-b]pyridine-6-carboxamide]	55.4	0.11
Cc1nc(-c2ccc(Cc3cc(C(=O)NCC4CCOCC4)nc4c3ccn4C)cc2)co1 [Compound 58, 1-methyl-4-[[4-(2-methyloxazol-4-yl)phenyl]methyl]-N-(tetrahydropyran-4-ylmethyl)pyrrolo[2,3-b]pyridine-6-carboxamide]	84.1	1.05
Cn1ccc2c(Cc3ccc(-c4nccs4)cc3)cc(C(=O)NC3CC4(COC4)C3)nc21 [Compound 62, 1-methyl-N-(2-oxaspiro[3.3]heptan-6-yl)-4-[(4-thiazol-2-ylphenyl)methyl]pyrrolo[2,3-b]pyridine-6-carboxamide]	60.6	0.87
O=C(N[C@@H]1CCOC1)c1cc(Cc2ccc(-n3cccn3)cc2)c2ccsc2n1 [Compound 78, 4-[(4-pyrazol-1-ylphenyl)methyl]-N-[(3R)-tetrahydrofuran-3-yl]thieno[2,3-b]pyridine-6-carboxamide]	68.5	1.72
Cn1ccc(-c2ccc(Cc3cc(C(=O)NC4CC5(COC5)C4)nc4c3ccn4C)cc2)n1 [Compound 40, 1-methyl-4-[[4-(1-methylpyrazol-3-yl)phenyl]methyl]-N-(2-oxaspiro[3.3]heptan-6-yl)pyrrolo[2,3-b]pyridine-6-carboxamide]	74	0.75
Cc1nc(-c2ccc(Cc3cc(C(=O)N[C@H]4CCC[C@@H]4O)nc4c3ccn4C)cc2)co1 [Compound 56, N-[(1S,2S)-2-hydroxycyclopentyl]-1-methy1-4-[[4-(2-methyloxazol-4-yl)phenyl]methyl]pyrrolo[2,3-b]pyridine-6-carboxamide]	84	0.27
O=C(NC1CCOCC1)c1cc(Cc2ccc(-n3cccn3)cc2)c2ccsc2n1 [Compound 71, 4-[(4-pyrazol-1-ylphenyl)methyl]-N-tetrahydropyran-4-yl-thieno[2,3-b]pyridine-6-carboxamide]	73.4	0.14
CCn1ccc2c(Cc3ccc(-n4cccn4)cc3)cc(C(=O)NC3CCOCC3)nc21 [Compound 11, 1-ethyl-4-[(4-pyrazol-1-ylphenyl)methyl]-N-tetrahydropyran-4-yl-pyrrolo[2,3-b]pyridine-6-carboxamide]	74	0.28
Cn1cc(-c2ccc(Cc3cc(C(=O)NC4CCOC(C)(C)C4)nc4c3ccn4C)cn2)cn1 (stereo not shown) [Compound 49, N-(2,2-dimethyltetrahydropyran-4-yl)-1-methy1-4-[[6-(1-methylpyrazol-4-yl)-3-pyridyl]methyl]pyrrolo[2,3-b]pyridine-6-carboxamide]	87.9	0.18
Cn1ncc2c(Cc3ccc(-c4cscn4)cc3)cc(C(=O)NC3CC4(COC4)C3)nc21 [Compound 30, 1-methyl-N-(2-oxaspiro[3.3]heptan-6-yl)-4-[(4-thiazol-4-ylphenyl)methyl]pyrazolo[3,4-b]pyridine-6-carboxamide]	77.8	0.66
Cn1ccc(-c2ccc(Cc3cc(C(=O)NCC4CCOC4)nc4sccc34)cc2)n1 (stereo not shown) [Compound 95, 4-[[4-(1-methylpyrazol-3-yl)phenyl]methyl]-N-(tetrahydrofuran-3-ylmethyl)thieno[2,3-b]pyridine-6-carboxamide]	65.5	0.37

Second part, the compound after the results:

Emax [%]	EC50 [µM]	Structure (SMILES)
58.9	1.05	Cc1nc(-c2ccc(Cc3cc(C(=O)NC4CC(C)OC(C)C4)nc4sccc34)cc2)co1 (stereo not shown) [Compound 132, N-(2,6-dimethyltetrahydropyran-4-yl)-4-[[4-(2-methyloxazol-4-yl)phenyl]methyl]thieno[2,3-b]pyridine-6-carboxamide]
64.2	0.95	COCC(C)NC(=O)c1cc(Cc2ccc(-c3coc(C)n3)cc2)c2ccsc2n1 (stereo not shown) [Compound 144, N-(2-methoxy-1-methyl-ethyl)-4-[[4-(2-methyloxazol-4-yl)phenyl]methyl]thieno[2,3-b]pyridine-6-carboxamide]
37.9	0.02	Cn1ccc(-c2ccc(Cc3cc(C(=O)NC4CCOCC4)nc4sccc34)cn2)n1 [Compound 102, 4-[[6-(1-methylpyrazol-3-yl)-3-pyridyl]methyl]-N-tetrahydropyran-4-yl-thieno[2,3-b]pyridine-6-carboxamide]
54.8	0.06	Cn1cc(-c2ccc(Cc3cc(C(=O)NCC4CCOCC4)nc4sccc34)cn2)cn1 [Compound 119, 4-[[6-(1-methylpyrazol-4-yl)-3-pyridyl]methyl]-N-(tetrahydropyran-4-ylmethyl)thieno[2,3-b]pyridine-6-carboxamide]
68.7	1.65	Cn1ccc(-c2ccc(Cc3cc(C(=O)NC4CC(F)(F)C4)nc4sccc34)cc2)n1 [Compound 98, N-(3,3-difluorocyclobutyl)-4-[[4-(1-methylpyrazol-3-yl)phenyl]methyl]thieno[2,3-b]pyridine-6-carboxamide]
56.8	0.15	Cn1ccc(-c2ccc(Cc3cc(C(=O)NC4CC5(COC5)C4)nc4sccc34)cn2)n1 [Compound 109, 4-[[6-(1-methylpyrazol-3-yl)-3-pyridyl]methyl]-N-(2-oxaspiro[3.3]heptan-6-yl)thieno[2,3-b]pyridine-6-carboxamide]
59.5	3.15	Cc1nc(-c2ccc(Cc3cc(C(=O)NCC4CCOC4)nc4sccc34)cc2)co1 (stereo not shown) [Compound 138, 4-[[4-(2-methyloxazol-4-yl)phenyl]methyl]-N-(tetrahydrofuran-3-ylmethyl)thieno[2,3-b]pyridine-6-carboxamide]
57.3	0.09	Cn1ccc(-c2ccc(Cc3cc(C(=O)NCC4CCOCC4)nc4sccc34)cn2)n1 [Compound 107, 4-[[6-(1-methylpyrazol-3-yl)-3-pyridyl]methyl]-N-(tetrahydropyran-4-ylmethyl)thieno[2,3-b]pyridine-6-carboxamide]
60.8	0.28	COCCNC(=O)c1cc(Cc2ccc(-c3coc(C)n3)cc2)c2ccsc2n1 [Compound 143, N-(2-methoxyethyl)-4-[[4-(2-methyloxazol-4-yl)phenyl]methyl]thieno[2,3-b]pyridine-6-carboxamide]
